Data set [1] is described as follows: MDR1 LLC-PK1 and BCRP MDCKII permeability assay: permeability coefficient (Papp).
Procedure: Both LLC-PK1 and MDR1 transfected LLC-PK1 cells were cultured and plated according to manufacturer's recommendations with the exception that the passage media contained only 2% fetal bovine serum to extend passage time out to seven days.
BCRP transfected MDCKII cells were cultured and plated according to manufacturer's recommendations. Assay conditions included with and without the BCRP-specific inhibitor, K0143, at a concentration of 0.3 μM to ascertain the contribution of BCRP to the efflux value of the test compound.
Both positive and negative controls were used to assess functionality of P-gp or BCRP efflux in the assays. […] Final organic concentration in the assay was 1%. All dosing solutions contained 10 μM lucifer yellow to monitor LLC-PK1 or MDCKII cell monolayer integrity.
For the apical to basolateral determination (A to B), 75 μL of the test article in transport buffer were added to the apical side of the individual transwells and 250 μL of basolateral media, without compound or lucifer yellow, were added to each well. For the basolateral to apical determination (B to A), 250 μL of test article in transport buffer were added to each well and 75 μL transport buffer, without compound or lucifer yellow, were added to each transwell. All tests were performed in triplicate, and each compound was tested for both apical to basolateral and basolateral to apical transport. The plates were incubated for 2 hours on a Lab-Line Instruments Titer Orbital Shaker (VWR, West Chester, Pa.) at 50 rpm and 37° C. with 5% CO2. All culture plates were removed from the incubator and 50 μL of media were removed from the apical and basolateral portion of each well and added to 150 μL of 1 μM labetalol in 2:1 acetonitrile (acetonitrile): H2O, v/v.
These values were accepted when found to be below 2% for apical to basolateral and 5% basolateral to apical flux across the MDR1-transfected LLC-PK1 or BCRP-transfected MDCKII cell monolayers. The plates were sealed and the contents of each well analyzed by LC-MS/MS. The compound concentrations were determined from the ratio of the peak areas of the compound to the internal standard (labetalol) in comparison to the dosing solution.
The LC-MS/MS system was comprised of an HTS-PAL autosampler (Leap Technologies, Carrboro, N.C.), an HP1200 HPLC (Agilent, Palo Alto, Calif.), and a MDS Sciex 4000 Q Trap system (Applied Biosystems, Foster City, Calif.). […] The total run time, including re-equilibration, for a single injection was 1.2 minutes. Mass spectrometric detection of the analytes was accomplished using the ion spray positive mode.
where Cd, V, t and C0 are the detected concentration (μM), the volume on the dosing side (mL); the incubation time (s) and the initial dosing concentration (μM), respectively. The calculations for Papp were made for each replicate and then averaged.
Another data set deals with P-gp (MDR1) (Homo sapiens (Human), UniProt P08183). As to the kind of experiment: MDR1 LLC-PK1 permeability assay: efflux ratio. The conditions noted are these: pig, LLC-PK1.
Another data set concerns the target BCRP (Homo sapiens (Human), UniProt Q9UNQ0). As to the kind of experiment: BCRP MDCKII permeability assay: efflux ratio. The note with it: dog.
Data set [2] concerns the target full-length FLAG-tagged B-Raf(V600E) (Homo sapiens (Human), UniProt P15056, V600E). The experiment in a line: BRAF V600E enzyme assay (TR-FRET competitive displacement of fluorescent tracer). The conditions noted are these: averaged IC50; 60 min at ambient temperature; 11-point dosing, top dose 10 μM. Format: binding. From the text:
A competitive displacement assay was configured for B-Raf that monitors the amount of a fluorescently-tagged “tracer” bound to B-Raf via TR-FRET from an anti-tag Eu-labeled antibody also bound to B-Raf.
[formula] • where: • Xmax Average Uninhibited Controls • Xmin Average Background
A 4-parameter logistic model was the fit to the POC data for each compound.
Background: Time-resolved FRET reads energy transfer from a long-lived donor to a nearby acceptor.

Structures are written as SMILES.

Chain of BCRP (Q9UNQ0 whole entry, species assumed): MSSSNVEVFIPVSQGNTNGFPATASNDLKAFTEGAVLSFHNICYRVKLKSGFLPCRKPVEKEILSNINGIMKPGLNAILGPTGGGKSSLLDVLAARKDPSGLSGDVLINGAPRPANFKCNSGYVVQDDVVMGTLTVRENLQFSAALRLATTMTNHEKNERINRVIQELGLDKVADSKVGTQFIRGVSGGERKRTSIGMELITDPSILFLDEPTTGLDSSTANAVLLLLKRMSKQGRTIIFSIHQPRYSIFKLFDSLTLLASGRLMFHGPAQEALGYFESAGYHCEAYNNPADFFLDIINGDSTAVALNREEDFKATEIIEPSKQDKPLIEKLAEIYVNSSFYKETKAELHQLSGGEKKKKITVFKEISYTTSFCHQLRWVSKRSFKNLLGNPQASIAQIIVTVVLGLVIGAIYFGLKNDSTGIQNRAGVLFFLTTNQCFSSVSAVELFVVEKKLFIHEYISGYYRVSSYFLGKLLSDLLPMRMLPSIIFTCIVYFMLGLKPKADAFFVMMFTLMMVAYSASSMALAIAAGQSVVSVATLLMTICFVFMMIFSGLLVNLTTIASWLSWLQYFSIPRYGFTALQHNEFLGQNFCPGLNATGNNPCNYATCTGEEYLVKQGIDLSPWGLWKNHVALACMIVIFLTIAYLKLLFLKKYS
Chain of P-gp (MDR1) (P08183 whole entry, species assumed): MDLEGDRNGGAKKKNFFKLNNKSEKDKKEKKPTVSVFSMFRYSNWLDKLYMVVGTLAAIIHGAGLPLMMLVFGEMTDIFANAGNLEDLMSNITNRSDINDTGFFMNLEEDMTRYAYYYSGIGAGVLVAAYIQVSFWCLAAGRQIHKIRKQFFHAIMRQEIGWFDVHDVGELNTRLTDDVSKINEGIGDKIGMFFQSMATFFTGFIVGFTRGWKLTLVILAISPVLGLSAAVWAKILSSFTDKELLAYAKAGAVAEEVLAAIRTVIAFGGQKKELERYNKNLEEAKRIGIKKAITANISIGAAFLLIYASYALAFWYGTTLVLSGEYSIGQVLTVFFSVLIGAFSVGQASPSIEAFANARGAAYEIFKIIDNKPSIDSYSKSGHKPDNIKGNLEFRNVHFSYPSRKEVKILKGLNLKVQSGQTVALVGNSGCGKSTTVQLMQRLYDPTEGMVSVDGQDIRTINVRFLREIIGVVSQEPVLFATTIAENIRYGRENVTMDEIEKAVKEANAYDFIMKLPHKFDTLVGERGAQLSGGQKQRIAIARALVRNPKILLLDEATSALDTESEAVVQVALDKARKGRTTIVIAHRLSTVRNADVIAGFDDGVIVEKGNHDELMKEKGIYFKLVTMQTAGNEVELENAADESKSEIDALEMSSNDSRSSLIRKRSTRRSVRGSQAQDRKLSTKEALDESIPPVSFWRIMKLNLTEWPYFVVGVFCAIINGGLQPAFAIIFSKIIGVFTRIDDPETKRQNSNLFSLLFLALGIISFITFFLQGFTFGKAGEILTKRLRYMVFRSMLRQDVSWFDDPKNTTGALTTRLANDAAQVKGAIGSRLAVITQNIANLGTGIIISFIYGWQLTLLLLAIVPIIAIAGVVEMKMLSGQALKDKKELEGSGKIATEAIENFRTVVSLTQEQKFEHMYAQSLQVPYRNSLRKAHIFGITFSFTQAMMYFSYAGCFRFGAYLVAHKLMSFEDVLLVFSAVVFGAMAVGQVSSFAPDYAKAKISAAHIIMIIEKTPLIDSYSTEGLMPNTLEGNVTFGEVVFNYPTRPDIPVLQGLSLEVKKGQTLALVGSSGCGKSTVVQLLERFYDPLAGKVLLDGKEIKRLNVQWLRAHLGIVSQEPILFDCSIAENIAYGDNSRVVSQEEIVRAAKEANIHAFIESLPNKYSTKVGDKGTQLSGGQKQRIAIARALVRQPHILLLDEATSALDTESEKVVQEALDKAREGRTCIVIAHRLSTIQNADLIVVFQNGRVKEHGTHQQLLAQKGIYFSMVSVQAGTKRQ
Chain of full-length FLAG-tagged B-Raf(V600E) (P15056 whole entry V600E): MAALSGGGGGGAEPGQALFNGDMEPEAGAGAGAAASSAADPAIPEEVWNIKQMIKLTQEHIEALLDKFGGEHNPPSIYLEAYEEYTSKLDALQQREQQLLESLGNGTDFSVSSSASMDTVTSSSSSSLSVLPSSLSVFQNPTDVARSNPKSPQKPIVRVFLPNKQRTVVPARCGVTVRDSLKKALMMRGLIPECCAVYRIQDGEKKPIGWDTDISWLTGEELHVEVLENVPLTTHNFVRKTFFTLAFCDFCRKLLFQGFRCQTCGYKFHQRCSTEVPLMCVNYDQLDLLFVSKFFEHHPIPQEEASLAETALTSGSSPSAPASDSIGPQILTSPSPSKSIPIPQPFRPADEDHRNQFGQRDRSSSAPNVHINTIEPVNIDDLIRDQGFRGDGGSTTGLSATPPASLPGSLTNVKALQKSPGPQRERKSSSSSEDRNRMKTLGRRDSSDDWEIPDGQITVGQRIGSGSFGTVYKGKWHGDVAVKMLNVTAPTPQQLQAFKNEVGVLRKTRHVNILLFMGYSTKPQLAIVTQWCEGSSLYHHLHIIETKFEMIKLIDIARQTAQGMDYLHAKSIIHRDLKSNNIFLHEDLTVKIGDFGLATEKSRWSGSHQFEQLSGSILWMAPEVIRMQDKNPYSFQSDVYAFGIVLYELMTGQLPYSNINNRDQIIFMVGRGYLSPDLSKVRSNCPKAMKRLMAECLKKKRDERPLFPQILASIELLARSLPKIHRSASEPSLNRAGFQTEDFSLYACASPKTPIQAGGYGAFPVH

For orientation: Papp means the rate of passage across a membrane or cell layer, normalised by area and donor concentration. A high value points to ready permeation. For orientation: efflux ratio means the permeability from basolateral to apical divided by that in the opposite direction, in the common usage. Usually IC50 stands for the concentration that gives 50% inhibition. A low value points to higher potency. For `CCCS(=O)(=O)Nc1ccc(Cl)c(Nc2ccc3ncn(C)c(=O)c3c2C)c1F` [Example 40, N-(4-chloro-3-((3,5-dimethyl-4-oxo-3,4-dihydroquinazolin-6-yl)amino)-2-fluorophenyl)propane-1-sulfonamide], in data set [1], the Papp at 2 h, 1 µM is 287 nm/s. Further, the efflux ratio at 2 h, 1 µM was determined as 2.2 on P-gp (MDR1) and 2.87 on BCRP. The molecule further showed an IC50 in data set [2] of 0.0439 µM.
`CCCS(=O)(=O)Nc1ccc(F)c(Nc2ccc3ncn(C)c(=O)c3c2C)c1C` [Example 41, N-(3-((3,5-dimethyl-4-oxo-3,4-dihydroquinazolin-6-yl)amino)-4-fluoro-2-methylphenyl)propane-1-sulfonamide] gave a Papp at 2 h, 1 µM in data set [1] of 298 nm/s. The efflux ratio at 2 h, 1 µM on P-gp (MDR1) amounted to 2.79; at BCRP, 3.28. In data set [2], this molecule showed an IC50 of 2.82 µM.
`Cc1c(Nc2cc(F)cc(NS(=O)(=O)CCCF)c2Cl)ccc2ncn(C)c(=O)c12` [Example 44, N-(2-chloro-3-((3,5-dimethyl-4-oxo-3,4-dihydroquinazolin-6-yl)amino)-5-fluorophenyl)-3-fluoropropane-1-sulfonamide]: the Papp at 2 h, 1 µM in data set [1] amounted to 242 nm/s. Besides, the efflux ratio at 2 h, 1 µM on P-gp (MDR1) came out at 1.05; on BCRP it was 2.84. The molecule also displayed an IC50 in data set [2] of 0.00605 µM.
For the molecule `Cc1c(Nc2c(F)ccc(NS(=O)(=O)c3ccccc3)c2Cl)ccc2ncn(C)c(=O)c12` [Example 49, N-(2-chloro-3-((3,5-dimethyl-4-oxo-3,4-dihydroquinazolin-6-yl)amino)-4-fluorophenyl)benzenesulfonamide], in data set [1], the Papp at 2 h, 1 µM turned out to be 307 nm/s. The results for the efflux ratio at 2 h, 1 µM at P-gp (MDR1) and on BCRP were 1.24 and 0.97, respectively. In data set [2], this molecule had an IC50 of 0.00395 µM.
Consider `CCCS(=O)(=O)Nc1ccc(F)c(Nc2ccc3ncn(-c4cccnc4)c(=O)c3c2C)c1Cl` [Example 58, N-(2-chloro-4-fluoro-3-((5-methyl-4-oxo-3-(pyridin-3-yl)-3,4-dihydroquinazolin-6-yl)amino)phenyl)propane-1-sulfonamide], for which the Papp at 2 h, 1 µM in data set [1] was 276 nm/s. Besides, the efflux ratio at 2 h, 1 µM at P-gp (MDR1) is 2.26; at BCRP, 1.93. In data set [2], this molecule returned an IC50 of 0.0355 µM.
Molecule `CCCS(=O)(=O)Nc1ccc(F)c(Nc2ccc3ncn(CC(F)(F)F)c(=O)c3c2C)c1Cl` [Example 59, N-(2-chloro-4-fluoro-3-((5-methyl-4-oxo-3-(2,2,2-trifluoroethyl)-3,4-dihydroquinazolin-6-yl)amino)phenyl)propane-1-sulfonamide] showed a Papp at 2 h, 1 µM in data set [1] of 251 nm/s. In addition, the results for the efflux ratio at 2 h, 1 µM on P-gp (MDR1) and on BCRP were 1.36 and 1.08, respectively. This molecule returned an IC50 in data set [2] of 0.0034 µM.
In data set [1], `C#Cc1c(Nc2c(F)ccc(NS(=O)(=O)CCC)c2Cl)ccc2ncn(C)c(=O)c12` [Example 60, N-(2-chloro-3-((5-ethynyl-3-methyl-4-oxo-3,4-dihydroquinazolin-6-yl)amino)-4-fluorophenyl)propane-1-sulfonamide] returned a Papp at 2 h, 1 µM of 290 nm/s. The efflux ratio at 2 h, 1 µM at P-gp (MDR1) came out at 2.3; at BCRP, 2.35. The IC50 in data set [2] was determined as 0.00925 µM.
For the molecule `CCC(C)S(=O)(=O)Nc1ccc(F)c(Nc2ccc3ncn(C)c(=O)c3c2C)c1Cl` (centres unmarked) [Example 61, N-(2-chloro-3-((3,5-dimethyl-4-oxo-3,4-dihydroquinazolin-6-yl)amino)-4-fluorophenyl)butane-2-sulfonamide], the Papp at 2 h, 1 µM in data set [1] turned out to be 266 nm/s. In addition, the efflux ratio at 2 h, 1 µM at P-gp (MDR1) was 1.2; on BCRP it was 0.84. The molecule also gave an IC50 in data set [2] of 0.0977 µM.
`CCCS(=O)(=O)Nc1ncc(F)c(Oc2ccc3ncn(C)c(=O)c3c2C)c1F` [Example 62, N-(4-((3,5-dimethyl-4-oxo-3,4-dihydroquinazolin-6-yl)oxy)-3,5-difluoropyridin-2-yl)propane-1-sulfonamide] returned a Papp at 2 h, 1 µM in data set [1] of 263 nm/s. Also, the efflux ratio at 2 h, 1 µM at P-gp (MDR1) came out at 2.3; at BCRP, 22.5. The molecule further displayed an IC50 in data set [2] of 0.0158 µM.
`Cc1c(Oc2c(F)cnc(NS(=O)(=O)CCCF)c2F)ccc2ncn(C)c(=O)c12` [Example 64, N-(4-((3,5-dimethyl-4-oxo-3,4-dihydroquinazolin-6-yl)oxy)-3,5-difluoropyridin-2-yl)-3-fluoropropane-1-sulfonamide] gave a Papp at 2 h, 1 µM in data set [1] of 97.8 nm/s. In addition, the values for the efflux ratio at 2 h, 1 µM on P-gp (MDR1) and at BCRP were 10.9 and 31, respectively. The molecule further yielded an IC50 in data set [2] of 0.0104 µM.
For the molecule `CCCS(=O)(=O)Nc1ccc(F)c(Sc2ccc3ncn(C)c(=O)c3c2C)c1Cl` [Example 65, N-(2-chloro-3-((3,5-dimethyl-4-oxo-3,4-dihydroquinazolin-6-yl)thio)-4-fluorophenyl)propane-1-sulfonamide], in data set [1], the Papp at 2 h, 1 µM was 1770 nm/s. Besides, the efflux ratio at 2 h, 1 µM at P-gp (MDR1) amounted to 1.4; on BCRP, 0.9. The molecule further had an IC50 in data set [2] of 0.0924 µM.
The corresponding values for `CCCS(=O)(=O)Nc1cccc(Oc2ccc3ncn(C)c(=O)c3c2C)c1C#N` [Example 66, N-{2-Cyano-3-[(3,5-dimethyl-4-oxo-3,4-dihydroquinazolin-6-yl)oxy]phenyl}propane-1-sulfonamide] are 232 nm/s, 1.7, 27.9 and 0.00408 µM.
The corresponding values for `CCCS(=O)(=O)Nc1cccc(Oc2ccc3ncn(C)c(=O)c3c2C)c1F` [Example 68, N-(3-((3,5-dimethyl-4-oxo-3,4-dihydroquinazolin-6-yl)oxy)-2-fluorophenyl)propane-1-sulfonamide] are 285 nm/s, 1.2, 1.3 and 0.033 µM.
In the case of `CCCS(=O)(=O)Nc1ccc(F)c(Oc2ccc3ncn(C)c(=O)c3c2C)c1C#N` [Example 69, N-(2-cyano-3-((3,5-dimethyl-4-oxo-3,4-dihydroquinazolin-6-yl)oxy)-4-fluorophenyl)propane-1-sulfonamide], the Papp at 2 h, 1 µM in data set [1] stood at 244 nm/s. Besides, the values for the efflux ratio at 2 h, 1 µM at P-gp (MDR1) and on BCRP were 4.1 and 23.8, respectively. In addition, the IC50 in data set [2] came out at 0.00046 µM.
On to `CCCS(=O)(=O)Nc1cc(Cl)cc(Oc2ccc3ncn(C)c(=O)c3c2C)c1F` [Example 70, N-(5-chloro-3-((3,5-dimethyl-4-oxo-3,4-dihydroquinazolin-6-yl)oxy)-2-fluorophenyl) propane-1-sulfonamide], for which, in data set [1], the Papp at 2 h, 1 µM is 191 nm/s. Also, the efflux ratio at 2 h, 1 µM at P-gp (MDR1) worked out at 1.73; on BCRP it was 1.17. For the same molecule, in data set [2], the IC50 turned out to be 0.00255 µM.
Consider `CCCS(=O)(=O)Nc1ccc(F)c(Oc2ccc3ncn(C)c(=O)c3c2C)c1F` [Example 71, N-(3-((3,5-dimethyl-4-oxo-3,4-dihydroquinazolin-6-yl)oxy)-2,4-difluorophenyl)propane-1-sulfonamide], for which the Papp at 2 h, 1 µM in data set [1] was 251 nm/s. The efflux ratio at 2 h, 1 µM at P-gp (MDR1) is 2.4; at BCRP, 0.86. In data set [2], this molecule registered an IC50 of 0.0164 µM.
The corresponding values for `CCCS(=O)(=O)Nc1cc(F)c(F)c(Oc2ccc3ncn(C)c(=O)c3c2C)c1F` [Example 72, N-(3-((3,5-dimethyl-4-oxo-3,4-dihydroquinazolin-6-yl)oxy)-2,4,5-trifluorophenyl)propane-1-sulfonamide] are 256 nm/s, 1.86, 1.81 and 0.0077 µM.

The values are drawn from patent US11414404B2, “Compounds for the treatment of BRAF-associated diseases and disorders” (Array BioPharma Inc., priority 2019, dated 2022).
